From PMC8518915, “Evaluation of 4‐(4‐Fluorobenzyl)piperazin‐1‐yl]‐Based Compounds as Competitive Tyrosinase Inhibitors Endowed with Antimelanogenic Effects” (Chemmedchem, 2021)
“Also recorded” adds a separate entry of the source. Where two headings read alike, the source gives them in different places. Blank lines part the entries; values can stand above or below the molecule they belong to.

How the values were obtained:
[1] = tested on: AbTYR; settings: cited from earlier work; for IC50: efficacy against AbTYR; for mode of inhibition: prototypical AbTYR inhibitor
[2] = target: T1, TYR from Agaricus bisporus (AbTYR) (Agaricus bisporus, UniProt C7FF04); settings: AbTYR kinetic studies; cited from earlier work
T1 construct: purchased Sigma Chemical Co. (St. Louis, MO, USA)
T1 sequence (C7FF04 1-392 limits assumed): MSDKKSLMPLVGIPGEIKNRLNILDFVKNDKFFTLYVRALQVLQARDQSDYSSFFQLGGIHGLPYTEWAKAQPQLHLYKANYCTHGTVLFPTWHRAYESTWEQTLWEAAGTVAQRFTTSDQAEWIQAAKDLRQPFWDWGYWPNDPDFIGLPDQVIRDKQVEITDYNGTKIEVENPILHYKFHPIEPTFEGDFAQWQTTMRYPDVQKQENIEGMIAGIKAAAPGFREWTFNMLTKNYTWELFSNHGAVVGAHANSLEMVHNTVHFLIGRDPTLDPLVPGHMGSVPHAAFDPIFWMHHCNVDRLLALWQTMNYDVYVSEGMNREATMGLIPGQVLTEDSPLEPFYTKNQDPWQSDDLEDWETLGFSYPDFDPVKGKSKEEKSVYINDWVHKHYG

[3] = tested on: B16F10 cells; assay: MTT assay for cell viability; assay type: cell-based, Murine; settings: B16F10 melanoma cells, 48 h, at the concentration inhibiting tyrosinase activity
Method: (§1) MTT assay was used to evaluate the biosafety effectiveness of 23, 25 and 26. Cells were treated with different concentration of each compound (0–100 μM), for 48 h, to determine the potential cytotoxic effect on B16F10 cells. […] To achieve a deeper characterization of most promising and potent inhibitor 26, we further examined its inhibitory effect on the tyrosinase activity in the cellular model. DOPA staining assay was performed using lysates of B16F10 cells untreated or treated with hormone with or without the tested compound 26. […] This was evident with the appearance of a darker band compared to that of untreated control (Figure 7). […] As result, the inhibitory effects of the compound 26 was also confirmed in the cellular model.
(§2) The viability of B16F10 cells was detected by the colorimetric 3‐(4,5‐dimethylthiazol‐2‐yl)‐2,5‐diphenyltetrazolium bromide (MTT) assay. A density of 5x10^3 cells/well, in the absence or presence of compounds (ranging from 1 μM to 100 μM), were seeded in 96‐well plates. The cells were incubated for 48 h at the temperature of 37 °C. MTT solution (0.5 mg/mL) was added at the end of incubation time. The medium was removed after 3 h of incubation at 37 °C. Then, DMSO was added to the precipitates and the absorbance was determined at 560 nm using a microplate reader (Multiskan FC – Thermo Scientific). The cell viability was expressed as the percentage of the amount of living cells in treated samples relative to untreated controls (100 % viability). The mean value and standard deviation (SD) were calculated from triplicate experiments.

[4] = MTT assay for cell viability; assay type: cell-based, Murine; settings: mouse, B16F10 melanoma cells, B16F10 cells, 100 μM (highest concentration)
Method: as §1, §2

[5] = target: T1, TYR from Agaricus bisporus (AbTYR); assay: Kinetic analysis of the tyrosinase inhibition (Lineweaver‐Burk plots); assay type: biochemical; settings: L‐DOPA 0.6–5 mM
Method: Compounds 23, 25 and 26 were selected for kinetic studies to obtain more information about the mode of action against TYR; thereby their inhibitory effects on diphenolase activity were measured using increasing concentration of L‐DOPA. (0.6–5 mM). The reaction mixture consisted of four different concentrations of L‐DOPA (0.6–5 mM), the substrate, and AbTYR in […] (0.05 M, pH 6.8).
Compounds 23 and 25 (0.2, 0.4, and 0.8 μM), 26 (0.09, 0.18, and 0.36 μM) were added to the reaction mixture. The Michaelis‐Menten constant (Km) and maximal velocity (Vmax) of tyrosinase were determined by Lineweaver‐Burk plots.
A series of experiments were performed to determine the mode of inhibition of compounds 23, 25, 26 on tyrosinase. The reaction mixture consisted of four different concentrations of the substrate L‐DOPA (0.6–5 mM), and mushroom tyrosinase in phosphate buffer (0.05 M, pH 6.8). In addition, three different concentrations of compounds 23, 25, 26 (0.2–0.4–0.8 μM) were used for the analysis. Preincubation and measurement time were the same as discussed in mushroom tyrosinase inhibition assay. The Michaelis‐Menten constant (Km) and maximal velocity (Vmax) of tyrosinase were determined by Lineweaver‐Burk plots.

[6] = tested on: tyrosinase activity in B16F10 cells; assay: Tyrosinase zymography (L‐DOPA staining) of cell lysates; assay type: cell-based, Murine
Method: as §1
The tyrosinase activity was performed by DOPA‐staining assay as previously reported but with slight modifications.[29] A day after seeding the B16F10 cells (6X104 cells/mL) the culture medium was changed by the same medium supplemented with either α‐MSH alone or α‐MSH plus compound (0–100 μM)) or kojic acid (100 μM). After incubation for 48 h, cells were washed and lysed using phosphate buffer (50 mM, pH 6.8) containing Triton X‐100 (1 %) and phenylmethyl‐sulfonyl fluoride (0.1 mM). Cellular lysates were centrifugated at 12000 g for 20 min at 4 °C. Bradford method was used to determine the protein content using BSA as standard. […]

Compound: CCOc1cccc(C(C)=NNC(N)=S)c1 [Compound 1, 2‐(1‐(3‐ethoxyphenyl)ethylidene)hydrazine‐1carbothioamide]
- IC50 [1]: 0.85 µM
- mode of inhibition [1]: competitive

Compound: Oc1ccc(C=Nc2nnc(S)s2)c(O)c1 [Compound 2, 4‐(((5‐mercapto‐1,3,4‐thiadiazol‐2‐yl)imino)methyl)benzene‐1,3‐diol]
- IC50 [1]: 0.25 µM
- mode of inhibition [1]: uncompetitive

Compound: O=C(CN1CCC(Cc2ccccc2)CC1)N1CCN(c2ccc(O)cc2)CC1 [Compound 3, 2‐(4‐benzyl‐1‐piperidyl)‐1‐[4‐(4‐hydroxyphenyl)piperazin‐1‐yl]ethanone]
- IC50 [1]: 3.8 µM
- mode of inhibition [1]: noncompetitive

Compound: COc1cc2[nH]cc(C(=O)CCN3CCC(Cc4ccc(F)cc4)CC3)c2cc1OC [Compound 4, 1‐(5,6‐dimethoxy‐1H‐indol‐3‐yl)‐3‐(4‐(4‐fluorobenzyl)piperidin‐1‐yl)propan‐1‐one]
- IC50 [1]: 7.56 µM
- mode of inhibition [1]: mixed‐type

Compound: O=C(c1ccc([N+](=O)[O-])cc1[N+](=O)[O-])N1CCN(Cc2ccc(F)cc2)CC1 [Compound 5 c, [4‐(4‐fluorobenzyl)piperazin‐1‐yl](2,4‐dinitrophenyl)methanone]
- mode of inhibition of diphenolase activity [2]: competitive inhibitor

Compound: O=C(Cc1ccccc1Cl)N1CCN(Cc2ccc(F)cc2)CC1 [Compound 10, 1‐[4‐(4‐Fluorobenzyl)piperazin‐1‐yl]‐2‐(2‐chlorophenyl)ethan‐1‐one]
- melting point: 100 to 102 °C

Compound: O=C(Cc1ccc(Cl)cc1)N1CCN(Cc2ccc(F)cc2)CC1 [Compound 12, 1‐[4‐(4‐Fluorobenzyl)piperazin‐1‐yl]‐2‐(4‐chlorophenyl)ethan‐1‐one]
- melting point: 120 to 122 °C

Compound: O=C(c1cccc(F)c1C(F)(F)F)N1CCN(Cc2ccc(F)cc2)CC1 [Compound 23, 1‐[4‐(4‐Fluorobenzyl)piperazin‐1‐yl]‐[3‐fluoro‐2‐(trifluoromethyl)phenyl]methanone]
- cytotoxic effect [3]: no cytotoxic effect; also recorded: no cytotoxicity
- viability at 48 h, 100 µM [4]: > 90%
- mode of inhibition of diphenolase activity [5]: competitive inhibitors

Compound: O=C(c1cc(F)ccc1C(F)(F)F)N1CCN(Cc2ccc(F)cc2)CC1 [Compound 25, 1‐[4‐(4‐Fluorobenzyl)piperazin‐1‐yl]‐[5‐fluoro‐2‐(trifluoromethyl)phenyl]methanone]
- cytotoxic effect [3]: no cytotoxic effect; also recorded: no cytotoxicity
- viability at 48 h, 100 µM [4]: > 90%
- mode of inhibition of diphenolase activity [5]: competitive inhibitors

Compound: O=C(c1cccc(Cl)c1[N+](=O)[O-])N1CCN(Cc2ccc(F)cc2)CC1 [Compound 26, 1‐[4‐(4‐Fluorobenzyl)piperazin‐1‐yl]‐(3‐chloro‐2‐nitro‐phenyl)methanone]
- cytotoxic effect [3]: absence of cytotoxicity; also recorded: no cytotoxic effect; also recorded: no cytotoxicity
- viability at 48 h, 100 µM [4]: > 90%
- mode of inhibition of diphenolase activity [5]: competitive inhibitors
- melting point: 91 to 92 °C
- antimelanogenic effect ([6]; B16F10 cells): exerted antimelanogenic effect; also recorded: displayed antimelanogenic effects
- tyrosinase activity in cellular model (L‐DOPA staining) ([6]; lysates of α‐MSH-treated B16F10 cells, compound 0–100 μM, 48 h): decreased in a dose‐response manner

Compound: O=c1cc(CO)occ1O [KA, 5‐hydroxy‐2‐(hydroxymethyl)‐4H‐pyran‐4‐one]
- mode of inhibition ([1]; classification from literature): competitive

The remaining lines, values ahead:

- melting point: 240 to 242 °C
Compound: O=C(Cc1cccc(Br)c1)N1CCN(Cc2ccc(F)cc2)CC1 [Compound 14, 1‐[4‐(4‐Fluorobenzyl)piperazin‐1‐yl]‐2‐(3‐bromophenyl)ethan‐1‐one]

- melting point: 88 to 90 °C
Compound: O=C(Cc1ccccc1[N+](=O)[O-])N1CCN(Cc2ccc(F)cc2)CC1 [Compound 16, 1‐[4‐(4‐Fluorobenzyl)piperazin‐1‐yl]‐2‐(2‐nitrophenyl)ethan‐1‐one]

- melting point: 83 to 84 °C
Compound: O=C(Cc1cccc([N+](=O)[O-])c1)N1CCN(Cc2ccc(F)cc2)CC1 [Compound 17, 1‐[4‐(4‐Fluorobenzyl)piperazin‐1‐yl]‐2‐(3‐nitrophenyl)ethan‐1‐one]

- melting point: 98 to 100 °C
Compound: O=C(Cc1ccc([N+](=O)[O-])cc1)N1CCN(Cc2ccc(F)cc2)CC1 [Compound 18, 1‐[4‐(4‐Fluorobenzyl)piperazin‐1‐yl]‐2‐(4‐nitrophenyl)ethan‐1‐one]

- melting point: 234 to 238 °C
Compound: COc1ccc(CC(=O)N2CCN(Cc3ccc(F)cc3)CC2)cc1 [Compound 19, 1‐[4‐(4‐Fluorobenzyl)piperazin‐1‐yl]‐2‐(4‐methoxyphenyl)ethan‐1‐one]

- melting point: 141 to 142 °C
Compound: O=C(c1ccc(Cl)cc1[N+](=O)[O-])N1CCN(Cc2ccc(F)cc2)CC1 [Compound 27, 1‐[4‐(4‐Fluorobenzyl)piperazin‐1‐yl]‐(4‐chloro‐2‐nitro‐phenyl)methanone]

- melting point: 130 to 131 °C
Compound: O=C(c1cc(Cl)ccc1[N+](=O)[O-])N1CCN(Cc2ccc(F)cc2)CC1 [Compound 28, 1‐[4‐(4‐Fluorobenzyl)piperazin‐1‐yl]‐(5‐chloro‐2‐nitro‐phenyl)methanone]

- melting point: 133 to 134 °C
Compound: COc1ccc(C(=O)N2CCN(Cc3ccc(F)cc3)CC2)c([N+](=O)[O-])c1 [Compound 31, 1‐[4‐(4‐Fluorobenzyl)piperazin‐1‐yl]‐(4‐methoxy‐2‐nitro‐phenyl)methanone]

- melting point: 151 to 152 °C
Compound: COc1ccc([N+](=O)[O-])c(C(=O)N2CCN(Cc3ccc(F)cc3)CC2)c1 [Compound 32, 1‐[4‐(4‐Fluorobenzyl)piperazin‐1‐yl]‐(5‐methoxy‐2‐nitro‐phenyl)methanone]
